Data on 13 compounds can be found in PubChem BioAssay (NCI).

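Five concentrations, 48 hours, 96-well plates. Definition used: TGI = concentration required for complete inhibition of growth.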

Among the test systems are SF-268 CNS; SN12C renal; NCI-H23 lung; NCI-H522 lung; M14 melanoma; HCT-15 colon; NCI/ADR-RES ovarian; SK-MEL-28 melanoma; HCT-116 colon; SW-620 colon.
Experiment in all cases: inhibition of tumour cell growth, NCI panel, 48 h

Take `O=c1[nH]nc(Cc2ccc([N+](=O)[O-])cc2)[nH]1`: the TGI with SF-268 CNS, with SN12C renal, in the test with NCI-H23 lung, in the test with NCI-H522 lung, in the test on M14 melanoma and in the test with HCT-15 colon was > 100 µM throughout. For the same compound, the TGI in the test with NCI/ADR-RES ovarian, with SK-MEL-28 melanoma, with HCT-116 colon and with SW-620 colon was > 100 µM each time.
On to `c1csc(-c2csc(-c3cccs3)c2)c1`, for which the TGI was > 100 µM with SF-268 CNS; > 100 µM in the test on SN12C renal; 63.1 µM in the test with NCI-H23 lung; > 100 µM in the test with NCI-H522 lung; > 100 µM in the test with M14 melanoma; > 100 µM in the test on HCT-15 colon. The TGI in the test on NCI/ADR-RES ovarian, in the test on SK-MEL-28 melanoma, in the test with HCT-116 colon and with SW-620 colon was > 100 µM in each case.
On to `O=C(O)c1cc2c(cc1CC(Cc1ccccc1)C(=O)O)CCC2` (stereo not given), for which the TGI with SF-268 CNS, in the test with SN12C renal, in the test on NCI-H23 lung, in the test on NCI-H522 lung, in the test with M14 melanoma and in the test with HCT-15 colon was > 100 µM throughout. In addition, the TGI with NCI/ADR-RES ovarian, in the test with SK-MEL-28 melanoma, with HCT-116 colon and in the test with SW-620 colon was > 100 µM each time.
Consider `CCCNC(=O)Cn1c(-c2ccccc2)cc2ccccc21`, for which the TGI in the test with SF-268 CNS is > 100 µM; in the test on SN12C renal, > 100 µM; in the test with NCI-H23 lung, > 100 µM; in the test on NCI-H522 lung, 60.1 µM; in the test on M14 melanoma it was > 100 µM; with HCT-15 colon, > 100 µM. Besides, the TGI with NCI/ADR-RES ovarian is > 100 µM; with SK-MEL-28 melanoma, > 100 µM; in the test with HCT-116 colon it was 70.4 µM; in the test on SW-620 colon it was > 100 µM.
As for `CC(CN(C)C)C(O)(c1ccccc1)c1ccccc1` (stereo not given), the TGI with SF-268 CNS, in the test with SN12C renal, in the test with NCI-H23 lung, in the test on NCI-H522 lung, in the test with M14 melanoma and in the test on HCT-15 colon was > 100 µM throughout. The TGI in the test with NCI/ADR-RES ovarian, with SK-MEL-28 melanoma, in the test on HCT-116 colon and in the test on SW-620 colon was > 100 µM in each case.
Regarding `CC(=O)Oc1ccc(-c2c(OC(C)=O)c(OC(C)=O)c(-c3ccc(OC(C)=O)c(OC(C)=O)c3)c(OC(C)=O)c2OC(C)=O)cc1`, the TGI in the test on SF-268 CNS turned out to be 32.8 µM; with SN12C renal, 35.1 µM; with NCI-H23 lung, 38 µM; in the test with NCI-H522 lung, 18.4 µM; in the test on M14 melanoma, 33.7 µM; with HCT-15 colon, 37.3 µM. The TGI was > 100 µM in the test on NCI/ADR-RES ovarian, 28.4 µM in the test with SK-MEL-28 melanoma, 40.2 µM in the test with HCT-116 colon and 38.6 µM with SW-620 colon.
`CCOC(=O)c1c(C)n(CCN2CCN(C)CC2)c2ccc(OC)cc12`: the TGI with SF-268 CNS is > 100 µM; with SN12C renal it was > 100 µM; in the test on NCI-H23 lung, > 100 µM; with NCI-H522 lung, > 100 µM; with M14 melanoma it was 30.8 µM; with HCT-15 colon, 95.8 µM. Also, the TGI was > 100 µM with NCI/ADR-RES ovarian, 32 µM in the test with SK-MEL-28 melanoma, > 100 µM with HCT-116 colon and > 100 µM with SW-620 colon.
As for `COc1cc(/C=C2\N=C(c3ccccc3)N(c3ccc(C(=O)c4ccccc4)cc3N3C(=O)/C(=C/c4cc(OC)c(OC)c(OC)c4)N=C3c3ccccc3)C2=O)cc(OC)c1OC`, the TGI in the test on SF-268 CNS is > 100 µM; with SN12C renal, 89.1 µM; in the test with NCI-H23 lung it was 41.6 µM; with NCI-H522 lung, 26.1 µM; with M14 melanoma, 33.4 µM; with HCT-15 colon it was 39.2 µM. The TGI with NCI/ADR-RES ovarian amounted to 34.1 µM; with SK-MEL-28 melanoma, 65.8 µM; in the test on HCT-116 colon, 52.2 µM; in the test with SW-620 colon, 40.7 µM.
On to `C=C1C(=O)O[C@H]2[C@@H](O)[C@H](C)CCC/C(C)=C/CC[C@@]3(C)O[C@@H]3C[C@@H]12`, for which the TGI with SF-268 CNS was 22 µM; in the test on SN12C renal, 22.6 µM; with NCI-H23 lung it was 21.8 µM; in the test on NCI-H522 lung, 8.28 µM; with M14 melanoma, 18.4 µM; in the test on HCT-15 colon, 4.68 µM. The TGI with NCI/ADR-RES ovarian came out at 37.9 µM; with SK-MEL-28 melanoma, 33.5 µM; in the test with HCT-116 colon, 12.4 µM; in the test with SW-620 colon, 39.9 µM.
For the compound `CC[N+]1(C)CCC(O)(/C=C/c2ccc(Cl)c(Cl)c2)C(C(=O)/C=C/c2ccc(Cl)c(Cl)c2)C1` (stereo not given), the TGI in the test with SF-268 CNS is 8.54 µM; in the test on SN12C renal, 3.61 µM; in the test with NCI-H23 lung, 7.03 µM; in the test on NCI-H522 lung, 3.34 µM; in the test with M14 melanoma, > 23.3 µM; with HCT-15 colon it was 7.13 µM. Moreover, the TGI in the test on NCI/ADR-RES ovarian is 6.63 µM; in the test with SK-MEL-28 melanoma, 4.37 µM; in the test on HCT-116 colon it was 3 µM; with SW-620 colon, 4.47 µM.
With `CCOc1cc(C=Nc2ccc(Oc3ccc(Cl)cc3)c(Cl)c2)ccc1O`, the TGI worked out at 32 µM in the test with SF-268 CNS; 38.8 µM in the test with SN12C renal; 45.6 µM with NCI-H23 lung; 31.9 µM in the test on NCI-H522 lung; 77.6 µM in the test with M14 melanoma; 47.3 µM with HCT-15 colon. For the same compound, the TGI in the test on NCI/ADR-RES ovarian is 52.9 µM; in the test with SK-MEL-28 melanoma, 63.1 µM; in the test with HCT-116 colon, 37.8 µM; in the test on SW-620 colon, > 100 µM.
Turning to `NC(Cc1ccccc1)C(=O)O` (stereo not given), the TGI in the test on SF-268 CNS, in the test on SN12C renal, with NCI-H23 lung, in the test with NCI-H522 lung, in the test with M14 melanoma and with HCT-15 colon was > 100 µM each time. The TGI in the test on NCI/ADR-RES ovarian, with SK-MEL-28 melanoma, in the test on HCT-116 colon and in the test with SW-620 colon was > 100 µM each time.
As to `C[C@@H](CC(O)C(O)C(C)(C)O)C1CCC23CC12CCC1[C@@]2(C)CCC(=O)C(C)(C)C2CC(OC2OC(CO)C(O)C(O)C2O)[C@]13C` (stereo not given in full), the TGI in the test on SF-268 CNS, with SN12C renal, in the test on NCI-H23 lung, in the test with NCI-H522 lung, in the test with M14 melanoma and in the test on HCT-15 colon was > 10 µM throughout. The TGI in the test with NCI/ADR-RES ovarian, in the test with SK-MEL-28 melanoma, in the test on HCT-116 colon and in the test on SW-620 colon was > 10 µM throughout.
